# Where a SMILES comes first, the peptide text is derived from it. Bridges are numbered along the chain shown (N, C = ends). [ ]: non-standard residue; d: D form. Aoc = NCCCCCCCC(=O)O; Ava = NCCCCC(=O)O
# Columns and labels:
# Rattus norvegicus = species on record: Rattus norvegicus; assay: Inhibition of ET-1 induced accumulation of inositol phosphates (IP-3) in rat skin fibroblasts; format: functional
# Endothelin-1 receptor = biological target: T1, Endothelin-1 receptor (Rattus norvegicus, UniProt P26684); assay: In vitro binding affinity against Endothelin A receptor by using endothelin (ET-1) as radioligand in rat heart ventricle
# T1 sequence (P26684 whole entry): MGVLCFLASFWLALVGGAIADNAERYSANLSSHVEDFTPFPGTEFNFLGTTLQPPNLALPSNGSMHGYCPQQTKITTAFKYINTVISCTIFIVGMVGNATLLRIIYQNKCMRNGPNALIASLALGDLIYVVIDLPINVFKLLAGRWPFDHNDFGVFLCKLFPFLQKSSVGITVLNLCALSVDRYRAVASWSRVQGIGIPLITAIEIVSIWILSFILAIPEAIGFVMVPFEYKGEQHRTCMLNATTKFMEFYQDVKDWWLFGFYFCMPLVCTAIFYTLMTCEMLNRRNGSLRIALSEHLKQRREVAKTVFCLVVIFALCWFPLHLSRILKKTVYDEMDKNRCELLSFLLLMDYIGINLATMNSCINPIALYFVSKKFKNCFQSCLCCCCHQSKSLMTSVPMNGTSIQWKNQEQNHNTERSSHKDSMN
# [1] = biological target: T2, Endothelin receptor type B (Rattus norvegicus, UniProt P21451); assay: Binding affinity against Endothelin B receptor in rat cerebellar membrane (ET-B) from adult blue laurie rat; format: cell membranes, Cerebellum
# T2 sequence (P21451 whole entry): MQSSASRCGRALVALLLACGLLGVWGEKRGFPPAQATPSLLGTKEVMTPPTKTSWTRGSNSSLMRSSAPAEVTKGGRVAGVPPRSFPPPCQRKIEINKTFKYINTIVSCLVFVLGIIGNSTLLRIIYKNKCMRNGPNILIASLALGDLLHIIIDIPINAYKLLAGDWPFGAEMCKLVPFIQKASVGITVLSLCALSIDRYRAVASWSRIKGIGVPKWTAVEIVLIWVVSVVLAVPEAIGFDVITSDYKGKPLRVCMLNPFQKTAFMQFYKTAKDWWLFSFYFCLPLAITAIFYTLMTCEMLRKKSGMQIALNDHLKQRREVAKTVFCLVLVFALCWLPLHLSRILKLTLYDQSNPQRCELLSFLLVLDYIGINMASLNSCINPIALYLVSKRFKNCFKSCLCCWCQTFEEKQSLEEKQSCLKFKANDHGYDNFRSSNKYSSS
# [2] = biological target: T2, Endothelin receptor type B; assay: Binding affinity against endothelin receptor in rat cerebellar membrane (ET-B) from adult blue laurie rat; format: cell membranes, Cerebellum
Compound,IC50 (Rattus norvegicus) [µM],IC50 (Endothelin-1 receptor) [nM],IC50 [1] [nM],IC50 [2] [nM]
CC[C@H](C)[C@H](NC(=O)[C@H](CC(=O)O)NC(=O)[C@H](CC(C)C)NC(=O)[C@H](Cc1c[nH]cn1)NC(=O)[C@@H]1CSSC[C@H](N)C(=O)N[C@@H](CO)C(=O)NCCCCCCCC(=O)N[C@@H](C(C)C)C(=O)N[C@@H](Cc2ccc(O)cc2)C(=O)N[C@@H](Cc2ccccc2)C(=O)N1)C(=O)N[C@H](C(=O)N[C@@H](Cc1c[nH]c2ccccc12)C(=O)O)[C@@H](C)CC (H-CS[Aoc]VYFCHLDIIW-OH; disulfide 1-7),3,–,–,–
CC[C@H](C)[C@H](NC(=O)[C@H](CC(=O)O)NC(=O)[C@H](CC(C)C)NC(=O)[C@H](Cc1c[nH]cn1)NC(=O)[C@@H]1CSSC[C@H](N)C(=O)N[C@@H](CO)C(=O)NCCCCCCC(=O)N[C@@H](C(C)C)C(=O)N[C@@H](Cc2ccc(O)cc2)C(=O)N[C@@H](Cc2ccccc2)C(=O)N1)C(=O)N[C@H](C(=O)N[C@@H](Cc1c[nH]c2ccccc12)C(=O)O)[C@@H](C)CC [listing 1 of 2 here],–,2500,–,–
CC[C@H](C)[C@H](NC(=O)[C@H](CC(=O)O)NC(=O)[C@H](CC(C)C)NC(=O)[C@H](Cc1c[nH]cn1)NC(=O)[C@@H]1CSSC[C@H](N)C(=O)N[C@@H](CO)C(=O)N[C@@H](CC(=O)O)C(=O)N[C@@H](CCCCN)C(=O)N[C@@H](CCC(=O)O)C(=O)N[C@@H](C(C)C)C(=O)N[C@@H](Cc2ccc(O)cc2)C(=O)N[C@@H](Cc2ccccc2)C(=O)N1)C(=O)N[C@H](C(=O)N[C@@H](Cc1c[nH]c2ccccc12)C(=O)O)[C@@H](C)CC (H-CSDKEVYFCHLDIIW-OH; disulfide 1-9) [listing 1 of 2 here],–,3500,1100,–
CC[C@H](C)[C@H](NC(=O)[C@H](CC(=O)O)NC(=O)[C@H](CC(C)C)NC(=O)[C@H](Cc1c[nH]cn1)NC(=O)[C@@H]1CSSC[C@H](N)C(=O)N[C@@H](C(C)C)C(=O)N[C@@H](Cc2ccc(O)cc2)C(=O)N[C@@H](Cc2ccccc2)C(=O)N1)C(=O)N[C@H](C(=O)N[C@@H](Cc1c[nH]c2ccccc12)C(=O)O)[C@@H](C)CC (H-CVYFCHLDIIW-OH; disulfide 1-5),2.2,6500,1700,–
CC[C@H](C)[C@H](NC(=O)[C@H](CC(=O)O)NC(=O)[C@H](CC(C)C)NC(=O)[C@H](Cc1c[nH]cn1)NC(=O)[C@@H]1CSSC[C@H](N)C(=O)N[C@@H](CO)C(=O)N[C@@H](CO)C(=O)N[C@@H](CO)C(=O)N[C@@H](C(C)C)C(=O)N[C@@H](Cc2ccc(O)cc2)C(=O)N[C@@H](Cc2ccccc2)C(=O)N1)C(=O)N[C@H](C(=O)N[C@@H](Cc1c[nH]c2ccccc12)C(=O)O)[C@@H](C)CC (H-CSSSVYFCHLDIIW-OH; disulfide 1-8),5,1200,60,–
CC[C@H](C)[C@H](NC(=O)[C@H](CC(=O)O)NC(=O)[C@H](CC(C)C)NC(=O)[C@H](Cc1c[nH]cn1)NC(=O)[C@@H]1CSSC[C@H](N)C(=O)N[C@@H](CO)C(=O)N[C@@H](CC(=O)O)C(=O)N[C@@H](CCCCN)C(=O)N[C@@H](CCC(=O)O)C(=O)N[C@@H](C(C)C)C(=O)N[C@@H](Cc2ccc(O)cc2)C(=O)N[C@@H](Cc2ccccc2)C(=O)N1)C(=O)N[C@H](C(=O)N[C@@H](Cc1c[nH]c2ccccc12)C(=O)O)[C@@H](C)CC (H-CSDKEVYFCHLDIIW-OH; disulfide 1-9) [listing 2 of 2 here],> 10,–,–,–
CC[C@H](C)[C@H](NC(=O)[C@H](CC(=O)O)NC(=O)[C@H](CC(C)C)NC(=O)[C@H](Cc1c[nH]cn1)NC(=O)[C@@H]1CSSC[C@H](N)C(=O)N[C@@H](CO)C(=O)N[C@@H](C(C)C)C(=O)N[C@@H](Cc2ccc(O)cc2)C(=O)N[C@@H](Cc2ccccc2)C(=O)N1)C(=O)N[C@H](C(=O)N[C@@H](Cc1c[nH]c2ccccc12)C(=O)O)[C@@H](C)CC (H-CSVYFCHLDIIW-OH; disulfide 1-6),–,2800,1700,–
CC[C@H](C)[C@H](NC(=O)[C@H](CC(=O)O)NC(=O)[C@H](CC(C)C)NC(=O)[C@H](Cc1cnc[nH]1)NC(=O)[C@@H]1CSSC[C@H](N)C(=O)N[C@@H](CO)C(=O)N[C@@H](CO)C(=O)N[C@@H](CC(C)C)C(=O)N[C@@H](CCSC)C(=O)N[C@@H](CC(=O)O)C(=O)N[C@@H](CCCCN)C(=O)N[C@@H](CCC(=O)O)C(=O)N1)C(=O)N[C@H](C(=O)N[C@@H](Cc1c[nH]c2ccccc12)C(=O)O)[C@@H](C)CC (H-CSSLMDKECHLDIIW-OH; disulfide 1-9),–,49000,–,> 10000
CC[C@H](C)[C@H](NC(=O)[C@H](CC(=O)O)NC(=O)[C@H](CC(C)C)NC(=O)[C@H](Cc1c[nH]cn1)NC(=O)[C@@H]1CSSC[C@H](N)C(=O)N[C@@H](CO)C(=O)NCCCCCCC(=O)N[C@@H](C(C)C)C(=O)N[C@@H](Cc2ccc(O)cc2)C(=O)N[C@@H](Cc2ccccc2)C(=O)N1)C(=O)N[C@H](C(=O)N[C@@H](Cc1c[nH]c2ccccc12)C(=O)O)[C@@H](C)CC [listing 2 of 2 here],8,–,–,–
CC[C@H](C)[C@H](NC(=O)[C@H](CC(=O)O)NC(=O)[C@H](CC(C)C)NC(=O)[C@H](Cc1cnc[nH]1)NC(=O)[C@@H]1CSSC[C@H](N)C(=O)N[C@@H](CO)C(=O)NCCCCCCCC(=O)N[C@@H](C(C)C)C(=O)N[C@@H](Cc2ccc(O)cc2)C(=O)N[C@@H](Cc2ccccc2)C(=O)N1)C(=O)N[C@H](C(=O)N[C@@H](Cc1c[nH]c2ccccc12)C(=O)O)[C@@H](C)CC (H-CS[Aoc]VYFCHLDIIW-OH; disulfide 1-7),–,1600,240,–
CC[C@H](C)[C@H](NC(=O)[C@H](CC(=O)O)NC(=O)[C@H](CC(C)C)NC(=O)[C@H](Cc1c[nH]cn1)NC(=O)[C@@H]1CSSC[C@H](N)C(=O)N[C@@H](CO)C(=O)N[C@@H](CO)C(=O)N[C@@H](C(C)C)C(=O)N[C@@H](Cc2ccc(O)cc2)C(=O)N[C@@H](Cc2ccccc2)C(=O)N1)C(=O)N[C@H](C(=O)N[C@@H](Cc1c[nH]c2ccccc12)C(=O)O)[C@@H](C)CC (H-CSSVYFCHLDIIW-OH; disulfide 1-7),–,1800,1400,–
CC[C@H](C)[C@H](NC(=O)[C@H](CC(=O)O)NC(=O)[C@H](CC(C)C)NC(=O)[C@H](Cc1c[nH]cn1)NC(=O)[C@@H]1CSSC[C@H](N)C(=O)N[C@@H](CO)C(=O)NCCCCC(=O)N[C@@H](C(C)C)C(=O)N[C@@H](Cc2ccc(O)cc2)C(=O)N[C@@H](Cc2ccccc2)C(=O)N1)C(=O)N[C@H](C(=O)N[C@@H](Cc1c[nH]c2ccccc12)C(=O)O)[C@@H](C)CC (H-CS[Ava]VYFCHLDIIW-OH; disulfide 1-7),> 10,1800,–,350
